Reference: ChEMBL document CHEMBL1122254, “Sulfonyliminoimidazolidines. A new class of oral hypoglycemic agents. 1. 1-[[p-[2-(acylamino)ethyl]phenyl]sulfonyl]-2-iminoimidazolidines” (1983)

Columns and labels:
Type in all cases: functional
Rattus norvegicus [1] = experiment: Hypoglycemic activity by lowering blood glucose in normal rats by 50% after oral administration.
Rattus norvegicus [2] = experiment: Hypoglycemic activity by lowering blood glucose in normal rats by 20% after oral administration.
Rattus norvegicus [3] = experiment: Hypoglycemic activity by lowering blood glucose in streptozotocin-diabetic rats by 20% after oral administration.
Rattus norvegicus [4] = experiment: Compound evaluated for hypoglycemic activity by lowering blood glucose in normal rats by 50% after oral administration (highest dose tested)

| Structure (SMILES) | ED50 (Rattus norvegicus [1]) [µmol/kg] | ED20 (Rattus norvegicus [2]) [mmol/kg] | ED20 (Rattus norvegicus [3]) [mmol/kg] | ED50 (Rattus norvegicus [4]) [µmol/kg] |
| --- | --- | --- | --- | --- |
| CC(Nc1ccccc1)C(=O)NCCc1ccc(S(=O)(=O)N2CCN(C3CCCCC3)C2=N)cc1 (stereo unspecified) | 200 | 0.06 | 0.4 |  |
| CCC(CC)C(=O)NCCc1ccc(S(=O)(=O)N2CCN(C3CCCCC3)C2=N)cc1 |  | 0.098 |  | > 890 |
| N=C1N(C2CCCCC2)CCN1S(=O)(=O)c1ccc(CCNC(=O)C2CC=CCC2)cc1 (stereo unspecified) | 15 | 0.0044 | 0.39 |  |
| CC/N=C(\S)NCCc1ccc(S(=O)(=O)N2CCN(C3CCCCC3)C2=N)cc1 | 140 | 0.016 |  |  |
| N=C1N(C2CCCCC2)CCN1S(=O)(=O)c1ccc(CCNC(=S)NC2CCCC2)cc1 | 210 | 0.05 |  |  |
| N=C1N(C2CCCCC2)CCN1S(=O)(=O)c1ccc(CCNC(=O)Oc2ccccc2)cc1 | > 850 | 0.042 |  |  |
| C/N=C(\S)NCCc1ccc(S(=O)(=O)N2CCN(C3CCCCC3)C2=N)cc1 | 240 | 0.031 |  |  |
| CCSCC(=O)NCCc1ccc(S(=O)(=O)N2CCN(C3CCCCC3)C2=N)cc1 | 200 | 0.055 | 0.57 |  |
| CC(C)/C=C/C(=O)NCCc1ccc(S(=O)(=O)N2CCN(C3CCCCC3)C2=N)cc1 | 34 | 0.0096 |  |  |
| N=C1N(C2CCCCC2)CCN1S(=O)(=O)c1ccc(CCNC(=S)NC2CCCCC2)cc1 |  | 0.16 |  | > 820 |
| CC(C(=O)NCCc1ccc(S(=O)(=O)N2CCN(C3CCCCC3)C2=N)cc1)N(C)C (stereo unspecified) | 62 | 0.024 |  |  |
| N=C1N(C2CCCCC2)CCN1S(=O)(=O)c1ccc(CCNC(=S)Nc2ccccc2)cc1 | 630 | 0.063 |  |  |
| C/C=C/C(=O)NCCc1ccc(S(=O)(=O)N2CCN(C3CCCCC3)C2=N)cc1 | 9.6 | 0.0028 | 0.18 |  |
| Cc1ccccc1C(=O)NCCc1ccc(S(=O)(=O)N2CCN(C3CCCCC3)C2=N)cc1 |  | 0.022 |  | > 850 |
| CCCCC(=O)NCCc1ccc(S(=O)(=O)N2CCN(C3CCCCC3)C2=N)cc1 | 120 | 0.035 |  |  |
| CC(=O)NCCc1ccc(S(=O)(=O)N2CCN(C3CCCCC3)C2=N)cc1 | 240 | 0.038 |  |  |
| CCOC(=O)NCCc1ccc(S(=O)(=O)N2CCN(C3CCCCC3)C2=N)cc1 | 170 | 0.035 |  |  |
| C[S+]([O-])CCC(=O)NCCc1ccc(S(=O)(=O)N2CCN(C3CCCCC3)C2=N)cc1 (stereo unspecified) | 200 | 0.056 | 0.86 |  |
| Cc1cc(C(=O)NCCc2ccc(S(=O)(=O)N3CCN(C4CCCCC4)C3=N)cc2)no1 | 130 | 0.022 | 0.14 |  |
| CCCCCC/N=C(\S)NCCc1ccc(S(=O)(=O)N2CCN(C3CCCCC3)C2=N)cc1 |  | 0.3 |  | > 610 |
| C=CC(=O)NCCc1ccc(S(=O)(=O)N2CCN(C3CCCCC3)C2=N)cc1 | 210 | 0.042 |  |  |

| Structure (SMILES) | ED50 (Rattus norvegicus [1]) [µmol/kg] | ED20 (Rattus norvegicus [2]) [mmol/kg] | ED20 (Rattus norvegicus [3]) [mmol/kg] | ED50 (Rattus norvegicus [4]) [µmol/kg] |
| --- | --- | --- | --- | --- |
| N=C1N(C2CCCCC2)CCN1S(=O)(=O)c1ccc(CCNC(=O)c2ccccc2Cl)cc1 | 230 | 0.023 |  |  |
| C=C(C(=O)NCCc1ccc(S(=O)(=O)N2CCN(C3CCCCC3)C2=N)cc1)c1ccccc1 | 48 | 0.014 | 0.96 |  |
| N=C1N(C2CCCCC2)CCN1S(=O)(=O)c1ccc(CCNC(=O)c2ccco2)cc1 | 160 | 0.013 | 0.22 |  |
| C/C=C(/C)C(=O)NCCc1ccc(S(=O)(=O)N2CCN(C3CCCCC3)C2=N)cc1 | 17 | 0.0035 |  |  |
| CCCCN(C)C(=O)NCCc1ccc(S(=O)(=O)N2CCN(C3CCCCC3)C2=N)cc1 | 320 | 0.054 |  |  |
| N=C1N(C2CCCCC2)CCN1S(=O)(=O)c1ccc(CCNC(=O)/C=C/c2ccccc2)cc1 |  | 0.11 |  | > 630 |
| CSCC(=O)NCCc1ccc(S(=O)(=O)N2CCN(C3CCCCC3)C2=N)cc1 | 190 | 0.081 |  |  |
| CCC/C=C/C(=O)NCCc1ccc(S(=O)(=O)N2CCN(C3CCCCC3)C2=N)cc1 | 22 | 0.009 | 0.81 |  |
| CSc1ccccc1C(=O)NCCc1ccc(S(=O)(=O)N2CCN(C3CCCCC3)C2=N)cc1 | 620 | 0.064 |  |  |
| N=C1N(C2CCCCC2)CCN1S(=O)(=O)c1ccc(CCNC(=O)CNc2ccccc2)cc1 | 320 | 0.064 | 0.4 |  |
| C=C(C)C(=O)NCCc1ccc(S(=O)(=O)N2CCN(C3CCCCC3)C2=N)cc1 | 220 | 0.024 |  |  |
| CCCCOC(=O)NCCc1ccc(S(=O)(=O)N2CCN(C3CCCCC3)C2=N)cc1 | 890 | 0.079 | 0.89 |  |
| N=C1N(C2CCCCC2)CCN1S(=O)(=O)c1ccc(CCNC(=O)CCN)cc1 | 370 | 0.065 | 0.76 |  |
| CC(N)C(=O)NCCc1ccc(S(=O)(=O)N2CCN(C3CCCCC3)C2=N)cc1 (stereo unspecified) | 160 | 0.059 | 0.46 |  |
| CC1=CCC(C(=O)NCCc2ccc(S(=O)(=O)N3CCN(C4CCCCC4)C3=N)cc2)CC1 (stereo unspecified) | 910 | 0.11 |  |  |
| CC1(C(=O)NCCc2ccc(S(=O)(=O)N3CCN(C4CCCCC4)C3=N)cc2)CC=CCC1 (stereo unspecified) | 170 | 0.053 |  |  |
| CCCC/N=C(\S)NCCc1ccc(S(=O)(=O)N2CCN(C3CCCCC3)C2=N)cc1 | 210 | 0.015 |  |  |
| CSCCC(=O)NCCc1ccc(S(=O)(=O)N2CCN(C3CCCCC3)C2=N)cc1 | 200 | 0.053 |  |  |
| N=C1N(C2CCCCC2)CCN1S(=O)(=O)c1ccc(CCNC(=O)C2CC2)cc1 | 150 | 0.034 |  |  |
| CC[S+]([O-])CC(=O)NCCc1ccc(S(=O)(=O)N2CCN(C3CCCCC3)C2=N)cc1 (stereo unspecified) | 240 | 0.074 | 0.85 |  |
| CN(C)CC(=O)NCCc1ccc(S(=O)(=O)N2CCN(C3CCCCC3)C2=N)cc1 | 180 | 0.057 |  |  |

| Structure (SMILES) | ED50 (Rattus norvegicus [1]) [µmol/kg] | ED20 (Rattus norvegicus [2]) [mmol/kg] | ED20 (Rattus norvegicus [3]) [mmol/kg] | ED50 (Rattus norvegicus [4]) [µmol/kg] |
| --- | --- | --- | --- | --- |
| C=CCCC(=O)NCCc1ccc(S(=O)(=O)N2CCN(C3CCCCC3)C2=N)cc1 | 15 | 0.0069 | 0.36 |  |
| COCCC(=O)NCCc1ccc(S(=O)(=O)N2CCN(C3CCCCC3)C2=N)cc1 | 220 | 0.033 |  |  |
| CCCCNC(=O)NCCc1ccc(S(=O)(=O)N2CCN(C3CCCCC3)C2=N)cc1 | 330 | 0.067 |  |  |
| N=C1N(C2CCCCC2)CCN1S(=O)(=O)c1ccc(CCNC(=O)Nc2ccccc2)cc1 |  | 0.85 |  |  |
| N=C1N(C2CCCCC2)CCN1S(=O)(=O)c1ccc(CCNC(=O)c2ccc(Cl)c(Cl)c2)cc1 |  | 0.37 |  | > 760 |
| N=C1N(C2CCCCC2)CCN1S(=O)(=O)c1ccc(CCNC(=O)CN)cc1 |  | 0.39 | 0.62 |  |
| CCOCC(=O)NCCc1ccc(S(=O)(=O)N2CCN(C3CCCCC3)C2=N)cc1 | 150 | 0.044 |  |  |
| CCCOCC(=O)NCCc1ccc(S(=O)(=O)N2CCN(C3CCCCC3)C2=N)cc1 | 350 | 0.1 |  |  |
| CCCSCC(=O)NCCc1ccc(S(=O)(=O)N2CCN(C3CCCCC3)C2=N)cc1 | 550 | 0.1 |  |  |
| N=C1N(C2CCCCC2)CCN1S(=O)(=O)c1ccc(CCNC(=O)CCC2CCC2)cc1 | 200 | 0.052 |  |  |
| COc1ccc(C(=O)NCCc2ccc(S(=O)(=O)N3CCN(C4CCCCC4)C3=N)cc2)cc1OC | 780 | 0.066 |  |  |
| COc1ccc(C(=O)NCCc2ccc(S(=O)(=O)N3CCN(C4CCCCC4)C3=N)cc2)cc1 | 830 | 0.064 |  |  |
| N=C1N(C2CCCCC2)CCN1S(=O)(=O)c1ccc(CCNC(=O)c2cccs2)cc1 | 170 | 0.022 |  |  |
| COc1ccc(Cl)cc1C(=O)NCCc1ccc(S(=O)(=O)N2CCN(C3CCCCC3)C2=N)cc1 |  | 0.12 |  | > 770 |
| N=C1N(C2CCCCC2)CCN1S(=O)(=O)c1ccc(CCNC(=O)CCNc2ccccc2)cc1 |  | 0.24 | 0.8 |  |
| COc1ccccc1C(=O)NCCc1ccc(S(=O)(=O)N2CCN(C3CCCCC3)C2=N)cc1 |  | 0.093 |  | > 830 |
| N=C1N(C2CCCCC2)CCN1S(=O)(=O)c1ccc(CCNC=O)cc1 | 260 | 0.053 |  |  |
| CC(C)CC(=O)NCCc1ccc(S(=O)(=O)N2CCN(C3CCCCC3)C2=N)cc1 | 150 | 0.046 |  |  |
| C/C=C\C(=O)NCCc1ccc(S(=O)(=O)N2CCN(C3CCCCC3)C2=N)cc1 | 38 | 0.0038 |  |  |
